The values that follow come from patent US20260232865A1, “DENDRIMER-BIOADHESIVE POLYMER HYDROGEL NANOGLUE AND USE THEREOF” (The Johns Hopkins University, priority 2016, published 2026).

What all share (format): in vivo, rat
Test [1] deals with IL-6 mRNA. The test can be described thus: Cytokine mRNA expression in corneal tissue by RT-PCR: IL-6. Particulars: POD7, normalized to healthy controls, mean±SEM. The procedure:
(§1) For cytokine expression analysis, the corneas (n=10, for each group) were snap frozen in liquid nitrogen and homogenized carefully into tissue powder using pre-cooled (in liquid nitrogen) porcelain mortar and pestles. The total RNA was purified with TRIzol reagent (Life Technologies, Grand Island, NY) following the manufacturer's instruction. 3 μg of total RNA was reverse-transcribed to cDNA using High-capacity cDNA Reverse Transcription System (Life Technologies) according to the manufacturer's instructions. qRT-PCR was performed with fast SYBR Green Master Mix (Life Technologies) by a StepOnePlus Real-Time PCR System (Life Technologies). Rat GAPDH was used to normalize the expression levels of target gene and calculated by the comparative cycle threshold Ct method (2^−(ΔΔCt)).

Test [2] has as its system MCP-1 mRNA. The test can be described thus: Cytokine mRNA expression in corneal tissue by RT-PCR: MCP-1. The procedure: as §1
Test [3] deals with corneal alkali burn. Particulars: for Estimated area of NV / CCT: mean±standard deviation; for Opacity score: median (inter-quartile range); for CCT: rat alkali burn, subconjunctival gel, 1.6 mg of Dex/eye. On the procedure: All procedures involving animals conformed with the IACUC research guidelines by the Association for Research in Vision and Ophthalmology Statement for the use of Animals in Ophthalmic and Vision Research and Johns Hopkins University. A total of 57 Lewis rats (7 to 8 weeks of age) were obtained from Harlan Laboratories Inc. (Frederick, MD). All animals weighed between 150 and 200 g, and they were housed at constant temperature (20±1° C.) and humidity (50±5%). They were fed standard rat chow and had access to water ad libitum. All procedures and tests were performed under general anesthesia with intramuscular injection of ketamine 0.9% (Bio-niche Pharma, Lake Forest, IL, USA)/xylazine 0.1% (Phoenix Pharmaceuticals, St. Joseph, MO, USA) and topical proparacaine 0.5% (Sandoz, Holzkirchen, Germany). Corneal alkali burn was generated by applying 0.5N NaOH on cornea. Briefly, sample discs SS-033 0.5 cm in diameter (WESCOR, Logan, Utah, USA) were cut in to 4 quadrants. The quadrant was soaked in 0.5N NaOH for 10 seconds and then placed on central cornea for 15 s. The burn area and the conjunctival sac were immediately irrigated with 30 mL of BSS solution using an eyedrop bottle.
Corneal alkali burn was performed on rats as described in Example 7.
After alkali burn, the animals were randomized for treatment in one of the following three groups: (i) Dendrimer-Dexamethasone conjugates entrapped in injectable, dendrimer-hyaluronic acid photocrosslinked gel with a minimal amount of free dexamethasone (D-Dex group, n=10), (ii) free dexamethasone in injectable, dendrimer-hyaluronic acid photocrosslinked gel (free-dex group, n=10), and (iii) no drug, only injectable, dendrimer-hyaluronic acid photocrosslinked gel, n=10. Both D-Dex and free-Dex groups were treated with equivalent Dex basis present in both D-Dex and free Dex formulations (1.6 mg of Dex/eye). […] The free dexamethasone group received a total of 1.6 mg of free dexamethasone. […] All forms of drugs were incorporated into injectable gel formulations (it is the same gel formulation as of example 4). The gel components are premixed and loaded in to the syringe and crosslinked to form gel using UV exposure. At the time of injection the components are in the form of gel) and injected subconjunctivally using 30-gauge, 0.5 cc insulin syringes.
Animals were assessed at baseline and at the following post-exposure time points: 24 hours, 72 hours, and 7 days. A subset of the animals was also followed up to 14 days.
The central corneal thickness (CCT) and stromal structure analysis were done using anterior chamber optical coherence tomography (OCT) (Bioptigen Envisu R-class OCT, Bioptigen, NC, USA).
Changes in intraocular pressure (IOP) were measured using a handheld tonometer (Icare LAB tonometer, Icare, Finland). The settings R for rat were chosen and three individual measurements of IOP were made for each eye for accuracy.
Corneal opacity was scored by grading the degree of transparency as previously reported by Larkin D F, et al., Clin Exp Immunol., 107:381-391 (1997). The estimated area of neovascularization (NV) was assessed by estimating the radial penetration of the neovascular vessels and their extent in degrees, and by assuming a mean corneal […] of 2.5 mm, so that the maximal area of NV was no more than 2.52π mm^2 (=19.63 mm^2).

Read-outs that look alike come from different tables or passages of the source.

`C[C@@H]1C[C@H]2[C@@H]3CCC4=CC(=O)C=C[C@]4(C)[C@@]3(F)[C@@H](O)C[C@]2(C)[C@@]1(O)C(=O)CO` [Free-Dex, Dexamethasone]: in test [1], the “IL-6 mRNA levels” value is recorded as 3.0±0.3. Also, the “MCP-1 mRNA levels significantly lower compared to the positive controls” value in test [2] (POD7, p=0.259) is “not true”. Also, in test [2] (POD14, corneal tissue, normalized to healthy controls, mean±SEM), the “MCP-1 mRNA levels” value is 15.4±3.22. Also, the “Estimated area of NV” value in test [3] (Baseline) is recorded as 0 ± 0 mm^2; in test [3] (POD1), 0 ± 0 mm^2; in test [3] (POD3), 3.32 ± 1.65 mm^2; in test [3] (POD7), 3.8 ± 2.89 mm^2; in test [3] (POD14), 43.32 ± 5.46 mm^2. Besides, the Opacity score is reported as 0(0) in test [3] (Baseline, grade 0-4); 3(3) in test [3] (POD1, grade 0-4); 3.5(1) in test [3] (POD3, grade 0-4); 1(1) in test [3] (POD7, grade 0-4); 1(2) in test [3] (POD14, grade 0-4). For the same compound, the CCT in test [3] (Baseline) is recorded as 142.86 ± 8.68 μm; in test [3] (POD1), 304.95 ± 87.23 μm; in test [3] (POD3) it was 357.71 ± 115.58 μm; in test [3] (POD7), 229.57 ± 91.54 μm; in test [3] (POD14) it was 226.57 ± 63.67 μm. The compound also had a median opacity score in test [3] (POD3, grade 0-4) of 3.5. Also, the “mean area occupied by neo-vessels” value in test [3] (POD7 as printed in text, spread not defined) was found to be 3.32±0.34 mm^2.
